One data set deals with KHT sarcoma. Put plainly: regrowth-delay assay: enhancement of the anti-tumour effect of CCNU. The class given is in vivo, C3H mice. As to conditions: for enhancement of CCNU response relative to MISO: 2.5 mmol/kg 30 min before 10 mg/kg CCNU; for sensitizer dose/response curve, activity: Fig. 4, various sensitizer doses; for growth delay, test compound given alone: without CCNU.

For data set [1] the following is noted: for toxicity at 2.5 mmol/kg: 2.5 mmol/kg i.p.; for toxicity: dose not stated, tested at MTD.
The next data set relates to KHT tumour. Further details: method as in Rauth et al. (1978). Conditions: same tumour and mouse strain, similar timing; ref Rauth et al. (1978); cited from earlier work.
The subject of another data set is ascites L1210 leukaemia. The arrangement: method as in Klubes et al., 1979. Conditions: mice; ref Klubes et al., 1979; cited from earlier work.
Another data set concerns RIF-1 sarcoma. The arrangement: method as in Siemann (1982). Conditions: 5 mmol/kg; ref Siemann (1982); cited from earlier work.
Where [2] appears, read: at close to maximum tolerated dose (MTD, below 2.5 mmol/kg) 30 min before 10 mg/kg CCNU.

Entries after “also recorded” stand apart in the source; their conditions may differ. Structures can show the parent of a compound that is named as a salt. Where two headings read alike, the source gives them in different places.

`O=C(Cn1ccnc1[N+](=O)[O-])NCc1ccccc1` [BENZO, benznidazole]: in the data set with KHT sarcoma, the “enhancement of CCNU response relative to MISO” value was “most active”. Moreover, the “dose-modifying factor (DMF)” value with KHT sarcoma (2.5 mmol/kg + 10 mg/kg CCNU compared with 20 mg/kg CCNU alone) is reported as more than 2. In the data set on KHT sarcoma (10 mg/kg CCNU), the “sensitizer dose/response curve, activity” value was “good activity at doses down to 0-05-0-1 mmol/kg”. Besides, the “activity relative to MISO at low doses” value in the data set with KHT sarcoma (low doses 0.1-0.9 mmol/kg, 10 mg/kg CCNU) was “considerably more active than MISO”.

On to `NC(=O)c1cc(N2CC2)c([N+](=O)[O-])cc1[N+](=O)[O-]` [CB 1954, 2,4-dinitro-5-aziridinylbenzamide], for which the “enhancement of CCNU response” value with KHT sarcoma (mouse, in vivo) is “no enhancement of CCNU response at MTD”. Besides, the “growth delay, test compound given alone” value in the data set with KHT sarcoma is on record as “about 1 day”. In data set [1], the “toxicity at 2.5 mmol/kg” value is recorded as “toxic” and the “toxicity” value is given as “rather toxic”.

For the compound `O=NN(CCCl)C(=O)NC1CCCCC1` [CCNU, 1-(2-chloroethyl)-3-cyclohexyl-1-nitrosurea], the median growth delay in the data set with KHT sarcoma (CCNU 20 mg/kg alone, 11 independent experiments) turned out to be 10 days.

On to `O=[N+]([O-])c1nccn1CC(O)CO` (stereo not shown) [DEMIS, desmethylmisonida- zole], for which the “enhancement of CCNU response relative to MISO” value with KHT sarcoma is recorded as “considerably less active than MISO”. In the data set with KHT tumour, the “in vivo radiosensitization” value is “good radiosensitization”.

Regarding `Cc1ncc([N+](=O)[O-])n1CCO` [METRO, metronidazole], the “enhancement of CCNU response relative to MISO” value with KHT sarcoma was “activities similar or even superior to MISO”. The “tumour response” value in the data set with KHT sarcoma (10 mmol/kg + 10 mg/kg CCNU, Fig. 4) is “about the same as with 2-5 mmol/kg MISO”. Besides, in the data set on KHT sarcoma (10 mg/kg CCNU), the “sensitizer dose/response curve, activity” value was “rather less active than MISO”. For the same compound, the “decrease in body temperature” value (10 mmol/kg) amounted to 10 °C.

Turning to `COCC(O)Cn1ccnc1[N+](=O)[O-]` (stereo not shown) [MISO, misonidazole], in the data set with KHT sarcoma (mouse, in vivo, 10 mg/kg), the “Activity Index (AI) for enhancement of CCNU effect” value was 1. In addition, the “decrease in body temperature” value (mouse, in vivo) is recorded as 1-2.

Turning to `Cn1cnc([N+](=O)[O-])c1S(=O)(=O)Oc1ccccc1` [NSC 38087], the “enhancement of CCNU response” value in the data set on KHT sarcoma (setting [2]) was “little activity at MTD”. Further, in data set [1], the “toxicity at 2.5 mmol/kg” value is on record as “toxic” and the “toxicity” value was “highly toxic”.

As to `CCCC(C(=O)OCCN(CC)CC)(c1ccccc1)c1ccccc1` [SKF 525A, proadifen hydrochloride], the “enhancement of CCNU response” value in the data set on KHT sarcoma (0.13 mmol/kg, 10 mg/kg CCNU, 10 mg/kg) is “increased the anti-tumour effect of CCNU; also recorded: active”. Besides, in the data set with ascites L1210 leukaemia, the “effect on LD50 of methyl-CCNU” value is on record as “reducing the LD50” and the “response of ascites L1210 leukaemia to methyl-CCNU” value is “increased the response”.

Turning to `O=C(Cn1ccnc1[N+](=O)[O-])NCCO` [SR-2508], the “enhancement of RIF-1 tumour response to CCNU” value in the data set with RIF-1 sarcoma was “Some enhancement”.

In the case of `O=C1c2ccccc2C(=O)c2cc(S(=O)(=O)O)ccc21` [anthraquinone sulphonate, anthraquinone-2-sulphonate], the “enhancement of CCNU response relative to MISO” value in the data set on KHT sarcoma is “reasonable activity”. For the same compound, the “decrease in body temperature” value (2.5 mmol/kg) is 5-6 °C. In addition, in data set [1], the “toxicity at 2.5 mmol/kg” value is on record as “non-toxic”.

Regarding `Cn1cnc([N+](=O)[O-])c1Sc1ncnc2nc[nH]c12` [azathioprine], the “enhancement of CCNU response” value is reported as “superior to 2-5 mmol/kg MISO” with KHT sarcoma (1.4 mmol/kg, compared with 2.5 mmol/kg MISO, 10 mg/kg CCNU) and “more active than MISO” in the data set on KHT sarcoma (setting [2]). For the same compound, in the data set with KHT sarcoma, the “growth delay, test compound given alone” value was “about 1 day”. Further, the “toxicity at 2.5 mmol/kg” value in data set [1] is on record as “toxic”.

Regarding `O=[N+]([O-])c1nccn1CC(O)CN1CCCCC1` (stereo not shown) [compound 13], the “enhancement of CCNU response relative to MISO” value is “Neither was more effective than MISO” with KHT sarcoma and “slightly less than MISO” with KHT sarcoma (listed as Ro 03-8799).

For the compound `CC1=C(C)C(=O)C(C)=C(C)C1=O` [duroquinone], the “enhancement of CCNU response” value in the data set on KHT sarcoma (setting [2]) is recorded as “little or no activity”. For the same compound, the “toxicity” value in data set [1] was “quite toxic”.

Take `c1c[nH]cn1` [imidazole]: the “enhancement of CCNU response” value with KHT sarcoma (5 mmol/kg (not shown), 10 mg/kg CCNU) is reported as “ineffective”.

As to `CC1=CC(=O)c2ccccc2C1=O` [menadione], the “enhancement of CCNU response” value in the data set with KHT sarcoma (setting [2]) was “little or no activity”. In data set [1], the “toxicity” value is listed as “quite toxic”.

Regarding `O=[N+]([O-])c1cncn1CCN1CCOCC1` [nimorazole], in the data set on KHT sarcoma, the “enhancement of CCNU response relative to MISO” value is “activities similar or even superior to MISO”.

With `O=C1CN(/N=C/c2ccc([N+](=O)[O-])o2)C(=O)N1` [nitrofurantoin], the “enhancement of CCNU response” value in the data set on KHT sarcoma (setting [2]) is “virtually inactive”. In data set [1], the “toxicity at 2.5 mmol/kg” value was “toxic”.

Regarding `NC(=O)N/N=C/c1ccc([N+](=O)[O-])o1` [nitrofurazone], the “enhancement of CCNU response” value with KHT sarcoma (setting [2]) is recorded as “reasonable activity; also recorded: reasonably active, but less than 2-5 mmol/kg MISO”. Besides, in data set [1], the “toxicity at 2.5 mmol/kg” value is “toxic”.
